Literature values in US8987322B2, “Pharmaceutical formulations for carrier-mediated transport statins and uses thereof” (Circ Pharma Research and Development Limited, priority 2003, dated 2015).

Legend:
[1] = not given; remark: listed apart in the source
[2] = not given; remark: listed apart in the source
rat hepatocytes = conditions: White (2002), read-out: IC50, inhibition of sterol synthesis
[3] = like that found in the stomach
HMG-CoA reductase = biological target: T1, HMG-CoA reductase (Homo sapiens, UniProt P04035)
T1 sequence (P04035 1-888): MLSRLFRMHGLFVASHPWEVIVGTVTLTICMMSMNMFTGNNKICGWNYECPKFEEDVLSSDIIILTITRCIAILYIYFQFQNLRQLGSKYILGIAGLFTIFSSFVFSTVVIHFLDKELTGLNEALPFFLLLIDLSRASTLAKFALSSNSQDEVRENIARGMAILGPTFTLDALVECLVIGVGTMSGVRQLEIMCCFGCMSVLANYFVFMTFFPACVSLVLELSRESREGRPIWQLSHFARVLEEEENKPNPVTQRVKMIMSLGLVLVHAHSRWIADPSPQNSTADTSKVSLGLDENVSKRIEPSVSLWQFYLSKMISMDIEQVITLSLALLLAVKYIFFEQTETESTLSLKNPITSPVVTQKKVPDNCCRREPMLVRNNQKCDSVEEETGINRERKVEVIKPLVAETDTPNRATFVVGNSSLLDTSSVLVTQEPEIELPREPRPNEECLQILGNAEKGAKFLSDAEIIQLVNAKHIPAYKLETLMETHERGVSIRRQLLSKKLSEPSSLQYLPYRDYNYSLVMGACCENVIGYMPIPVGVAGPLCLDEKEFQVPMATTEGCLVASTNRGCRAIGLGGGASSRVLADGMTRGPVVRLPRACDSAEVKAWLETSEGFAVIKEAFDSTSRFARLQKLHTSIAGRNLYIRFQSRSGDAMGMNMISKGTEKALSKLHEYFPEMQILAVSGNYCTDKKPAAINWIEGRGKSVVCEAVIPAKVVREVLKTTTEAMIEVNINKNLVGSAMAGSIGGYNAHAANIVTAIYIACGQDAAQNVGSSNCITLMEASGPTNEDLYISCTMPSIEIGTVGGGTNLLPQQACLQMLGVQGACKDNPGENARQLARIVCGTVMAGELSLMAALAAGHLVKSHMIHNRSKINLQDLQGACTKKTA

[4] = system: LDL-C, HDL-C and triglyceride levels; conditions: Malinowski (1998)

| clearance through biliary excretion ([2]; Cheng-Lai (2003)) | excreted in the urine ([2]; Cheng-Lai (2003)) | hepatic extraction (share of the absorbed dose extracted by the liver) ([2]; Igel et al. (2002)) | dose dependence of Cmax and AUC ([2]; doses ranging from 5 to 80 mg) | elimination half-life (t1/2) ([2]; in vivo) | stability in an acidic environment [3] | share of the inhibitory activity due to the parent compound (HMG-CoA reductase; White (2002)) | fraction of drug absorbed from the intestine taken up by the liver ([2]; first-pass) | fraction of orally administered drug absorbed from the intestine ([2]; oral) | systemic availability of active inhibitors (parent drug and its metabolites) ([2]; oral) | share of atorvastatin's inhibitory activity accounted for by its o-hydroxylated and p-hydroxylated metabolites (HMG-CoA reductase) | duration of HMG-CoA reductase inhibition (HMG-CoA reductase; due to the inhibitory activity of metabolites) | Structure (SMILES) | adverse effect at high doses (80 mg and higher, phase III clinical trials) | tolerability in humans (doses ranging from 1 to 40 mg) | water solubility class as defined in the U.S. Pharmacopeia (2002) [1] | effect of food on absorption ([2]; presence of food) | IC50 (rat hepatocytes) | reduction of LDL-C levels [4] |
| --- | --- | --- | --- | --- | --- | --- | --- | --- | --- | --- | --- | --- | --- | --- | --- | --- | --- | --- |
| 90% | 10% | up to 90% | relatively linear relationship | 20 h | stable in acidic environments | 90% | – | – | – | – | – | CC(C)c1nc(N(C)S(C)(=O)=O)nc(-c2ccc(F)cc2)c1/C=C/[C@@H](O)C[C@@H](O)CC(=O)O (single isomer, unassigned) [rosuvastatin] | associated with myopathy | well tolerated | sparingly soluble (“sparingly soluble” refers to an aqueous solubility that ranges from about 1/30 to about 1/100 (mg/ml)) | overall extent of absorption remains constant | 0.16 nM | – |
| – | – | – | – | – | – | – | ≥ 70% | about 30% | 30% | approximately 70% | 20 to 30 h | CC(C)c1c(C(=O)Nc2ccccc2)c(-c2ccccc2)c(-c2ccc(F)cc2)n1CC[C@@H](O)C[C@@H](O)CC(=O)O [atorvastatin] | – | – | – | – | – | 40-60% |
| – | – | – | – | – | unstable in an acidic environment | – | – | – | – | – | – | CC[C@H](C)C(=O)O[C@H]1C[C@H](O)C=C2C=C[C@H](C)[C@H](CC[C@@H](O)C[C@@H](O)CC(=O)O)[C@H]21 [pravastatin] | – | – | – | – | – | – |
